From patent US20090253709A1 (NATIONAL DEFENSE MEDICAL CENTER, priority 2008, published 2009)
Read-outs that look alike come from different tables or passages of the source.

System: hTERT expression
Assay: SEAP assay, H1299/PhTERT-driven SEAP system
Format: cell-based, human
Settings: Homo sapiens
Description: The condition of the cells for selecting the telomerase inhibitor must be the cancer cells with telomerase activity. H1299 is a non-small cell lung cancer cell line with telomerase activity. The hTERT communication gene linked behind PhTERT which is located at the fifth chromosome of H1299 cell can be expressed; however, this expression is hard to detect. Therefore, the plasmid having the SEAP communication gene linked behind PhTERT was transfected into H1299 cells. Under the identical condition, after PhTERT was activated, the SEAP communication gene linked behind the plasmid was also activated. This gene could be detected by this analytic method while expressing.
If additionally added reagent can inhibit PhTERT, the linked SEAP communication gene will not be expressed, and the hTERT communication gene linked behind PhTERT at the fifth chromosome will not be expressed. […]
The cellular medium after the cellular incubation was transferred into the eppondorf tube, and the activity of endogeneous alkaline phosphatase was inactivated at 65° C. for 10 minutes. After centrification, the mixture was obtained by mixing 50 μl of the supernatant with the equal volume of the SEAP buffer. The mixture and the substrate (120 mM of p-nitrophenylphosphate) were preheated at 37° C. for 10 minutes respectively, and the mixture and the substrate were mixed at a ratio of 1:10 and reacted at 37° C. The absorbance of visible light at 405 nm was determined at the appropriate time intervals, and the enzymatic activity of SEAP was represented by the speed of the increasing absorbance at 405 nm.
The selection of telomerase inhibitors of the anthraquinone compounds provided in the present invention was performed by the H1299/PhTERT-driven SEAP system. SEAP is the communication gene in this drug selection model. The SEAP inhibition was shown as follows. The quantitative cellular medium obtained after the 24-hour drug-treatment and the identical inactivation was reacted with the quantitative SEAP substrate, and the absorbance at 405 nm was detected for 5 time intervals. Subsequently, the linear slope of absorbance to the measuring time was calculated, and the variance of absorbance at 405 nm per minute was represented and compared with the SEAP-producing result of drug-untreated H1299 cells. In addition, the influence of the cell-treated drug solution to the cellular proliferation and the drug toxicity to the cells were considered, and the cellular growth was evaluated by the MTT assay. The drug-treated cells were analyzed by the SEAP assay and the data analysis of MTT assay at the same time. Both results were compared so as to delete the influence of cell number or the activity to SEAP, and the dose-dependent phenomenon could be anticipated in the range of drug concentration designed by the laboratory.
In the preliminary selection, the highest concentration was 1000 μM, and 10-fold serial dilutions were done. Therefore, the final concentrations for treating cells were 1 μM, 10 μM and 100 μM, and the drug concentrations were repeated for 5 times. Since the chemically-synthetic drugs have colors thereon, the SEAP value of drug-treatment without cells was also determined to be the background value which was deducted while treating with the drugs. The candidate drug for inhibiting telomerase on the hTERT gene expression level was evaluated and anticipated.

[1] = NCI-H1299, H1299, compound concentration 1 μM, read-out: SEAP (Inhibition μM ± SD)
[2] = NCI-H1299, H1299, compound concentration 10 μM, read-out: SEAP (Inhibition μM ± SD)
[3] = NCI-H1299, H1299, compound concentration 100 μM, read-out: SEAP (Inhibition μM ± SD)
[4] = NCI-H1299, read-out: SEAP (Inhibition μM ± SD)

## O=C1c2ccc([N+](=O)[O-])cc2C(=O)c2cc([N+](=O)[O-])ccc21 [Compound 1, 2,7-dinitroanthraquinone]
[1]
  activity at 1 µM: 87 ± 13%
[2]
  activity at 10 µM: 85 ± 21%
[3]
  activity at 100 µM: 62 ± 8%

## Nc1ccc2c(c1)C(=O)c1cc(N)ccc1C2=O [Compound 2, 2,7-Diaminoanthraquinone]
[1]
  activity at 1 µM: 87 ± 10%
[2]
  activity at 10 µM: 75 ± 8%
[3]
  activity at 100 µM: 63 ± 12%

## O=C(CCl)Nc1ccc2c(c1)C(=O)c1cc(NC(=O)CCl)ccc1C2=O [Compound 3, 2,7-bis(chloroacetamido)anthraquinone]
[4]
  activity at 1 µM: 72 ± 3%
  activity at 10 µM: 40 ± 1%
  activity at 100 µM: 36 ± 1%

## CCN(CC)CC(=O)Nc1ccc2c(c1)C(=O)c1cc(NC(=O)CN(CC)CC)ccc1C2=O [Compound 4, 2,7-Bis[2-(diethylamino)acetamido]anthraquinone]
[1]
  activity at 1 µM: 90 ± 3%
[2]
  activity at 10 µM: 61 ± 11%
[3]
  activity at 100 µM: 37 ± 10%

## CCCCNCC(=O)Nc1ccc2c(c1)C(=O)c1cc(NC(=O)CNCCCC)ccc1C2=O [Compound 5, 2,7-Bis[2-(butylamino)acetamido]anthraquinone]
[1]
  activity at 1 µM: 77 ± 18%
[2]
  activity at 10 µM: 26 ± 17%
[3]
  activity at 100 µM: 20 ± 13%

## O=C(CN1CCCCC1)Nc1ccc2c(c1)C(=O)c1cc(NC(=O)CN3CCCCC3)ccc1C2=O [Compound 7, 2,7-Bis[2-(piperidino)acetamido]anthraquinone]
[1]
  activity at 1 µM: 74 ± 19%
[2]
  activity at 10 µM: 69 ± 20%
[3]
  activity at 100 µM: 63 ± 15%

## CCCNCC(=O)Nc1ccc2c(c1)C(=O)c1cc(NC(=O)CNCCC)ccc1C2=O [Compound 9, 2,7-Bis[2-(propylamino)acetamido]anthraquinone]
[1]
  activity at 1 µM: 73 ± 17%
[2]
  activity at 10 µM: 44 ± 16%
[3]
  activity at 100 µM: 24 ± 10%

## CN1CCN(CC(=O)Nc2ccc3c(c2)C(=O)c2cc(NC(=O)CN4CCN(C)CC4)ccc2C3=O)CC1 [Compound 11, 2,7-Bis[2-(N-methylpiperazino)acetamido]anthraquinone]
[1]
  activity at 1 µM: 76 ± 21%
[2]
  activity at 10 µM: 50 ± 11%
[3]
  activity at 100 µM: 23 ± 9%

## O=C(CN1CCNCC1)Nc1ccc2c(c1)C(=O)c1cc(NC(=O)CN3CCNCC3)ccc1C2=O [Compound 12, 2,7-Bis[2-(piperazino)acetamido]anthraquinone]
[1]
  activity at 1 µM: 89 ± 17%
[2]
  activity at 10 µM: 72 ± 20%
[3]
  activity at 100 µM: 60 ± 12%

## CC(C)CNCC(=O)Nc1ccc2c(c1)C(=O)c1cc(NC(=O)CNCC(C)C)ccc1C2=O [Compound 14, 2,7-Bis[2-(isobutylamino)acetamido]anthraquinone]
[1]
  activity at 1 µM: 73 ± 20%
[2]
  activity at 10 µM: 38 ± 15%
[3]
  activity at 100 µM: 26 ± 10%

## O=C(CCCl)Nc1ccc2c(c1)C(=O)c1cc(NC(=O)CCCl)ccc1C2=O [Compound 15, 2,7-Bis(3-chloropropionamido)anthraquinone]
[1]
  activity at 1 µM: 94 ± 11%
[2]
  activity at 10 µM: 94 ± 7%
[3]
  activity at 100 µM: 87 ± 9%

## CCCCNCCC(=O)Nc1ccc2c(c1)C(=O)c1cc(NC(=O)CCNCCCC)ccc1C2=O [Compound 17, 2,7-Bis[3-(butylamino)propionamido]anthraquinone]
[1]
  activity at 1 µM: 56 ± 14%
[2]
  activity at 10 µM: 33 ± 9%
[3]
  activity at 100 µM: 22 ± 17%

## O=C(CCN1CCCCC1)Nc1ccc2c(c1)C(=O)c1cc(NC(=O)CCN3CCCCC3)ccc1C2=O [Compound 19, 2,7-Bis[3-(piperidino)propionamido]anthraquinone]
[1]
  activity at 1 µM: 55 ± 23%
[2]
  activity at 10 µM: 33 ± 8%
[3]
  activity at 100 µM: 25 ± 10%

## CCCNCCC(=O)Nc1ccc2c(c1)C(=O)c1cc(NC(=O)CCNCCC)ccc1C2=O [Compound 21, 2,7-Bis[3-(propylamino)propionamido]anthraquinone]
[1]
  activity at 1 µM: 52 ± 13%
[2]
  activity at 10 µM: 22 ± 14%
[3]
  activity at 100 µM: 13 ± 15%

## CCNCCC(=O)Nc1ccc2c(c1)C(=O)c1cc(NC(=O)CCNCC)ccc1C2=O [Compound 22, 2,7-Bis[3-(ethylamino)propionamido]anthraquinone]
[4]
  activity at 1 µM: 68 ± 29%
  activity at 10 µM: 33 ± 24%
  activity at 100 µM: 22 ± 13%
